Assay results from the NIST ThermoML archive (doi:10.1016/j.jct.2017.05.001).
± gives the expanded uncertainty stated by the source.

Assay: wn = mass fraction of the nth substance listed
Conditions: Liquid; for mass density: Vibrating tube method

CN(C)CCO [2-(N,N-dimethylamino)ethanol] + O
viscosity [mPa·s]
Conditions | 313.15 K | 333.15 K
100 kPa, Concentric cylinders viscometry, w1 = 0.1 | – | 0.623 ± 0.014
100 kPa, Concentric cylinders viscometry, w1 = 0.2 | – | 0.888 ± 0.019
100 kPa, Concentric cylinders viscometry, w1 = 0.3 | – | 1.226 ± 0.026
100 kPa, Concentric cylinders viscometry, w1 = 0.4 | – | 1.671 ± 0.035
100 kPa, Falling or rolling sphere viscometry, w1 = 0.1005 | – | 0.6336 ± 0.021
100 kPa, Falling or rolling sphere viscometry, w1 = 0.202 | – | 0.8725 ± 0.029
100 kPa, Falling or rolling sphere viscometry, w1 = 0.3005 | – | 1.217 ± 0.04
100 kPa, Falling or rolling sphere viscometry, w1 = 0.3995 | – | 1.651 ± 0.054
5000 kPa, Falling or rolling sphere viscometry, w1 = 0.1005 | – | 0.6341 ± 0.021
5000 kPa, Falling or rolling sphere viscometry, w1 = 0.202 | – | 0.877 ± 0.029
5000 kPa, Falling or rolling sphere viscometry, w1 = 0.3005 | – | 1.223 ± 0.04
5000 kPa, Falling or rolling sphere viscometry, w1 = 0.3995 | – | 1.669 ± 0.055
10000 kPa, Falling or rolling sphere viscometry, w1 = 0.1005 | – | 0.6372 ± 0.021
10000 kPa, Falling or rolling sphere viscometry, w1 = 0.202 | – | 0.8862 ± 0.029
10000 kPa, Falling or rolling sphere viscometry, w1 = 0.3005 | – | 1.239 ± 0.041
10000 kPa, Falling or rolling sphere viscometry, w1 = 0.3995 | – | 1.695 ± 0.056
15000 kPa, Falling or rolling sphere viscometry, w1 = 0.1005 | – | 0.6403 ± 0.021
15000 kPa, Falling or rolling sphere viscometry, w1 = 0.202 | – | 0.8907 ± 0.029
15000 kPa, Falling or rolling sphere viscometry, w1 = 0.3005 | – | 1.249 ± 0.041
15000 kPa, Falling or rolling sphere viscometry, w1 = 0.3995 | – | 1.719 ± 0.056
20000 kPa, Falling or rolling sphere viscometry, w1 = 0.1005 | – | 0.6431 ± 0.021
20000 kPa, Falling or rolling sphere viscometry, w1 = 0.202 | – | 0.897 ± 0.029
20000 kPa, Falling or rolling sphere viscometry, w1 = 0.3005 | – | 1.26 ± 0.041
20000 kPa, Falling or rolling sphere viscometry, w1 = 0.3995 | – | 1.742 ± 0.057
25000 kPa, Falling or rolling sphere viscometry, w1 = 0.1005 | – | 0.6461 ± 0.021
25000 kPa, Falling or rolling sphere viscometry, w1 = 0.202 | – | 0.9026 ± 0.03
25000 kPa, Falling or rolling sphere viscometry, w1 = 0.3005 | – | 1.274 ± 0.042
25000 kPa, Falling or rolling sphere viscometry, w1 = 0.3995 | – | 1.765 ± 0.058
30000 kPa, Falling or rolling sphere viscometry, w1 = 0.1005 | – | 0.6477 ± 0.021
30000 kPa, Falling or rolling sphere viscometry, w1 = 0.202 | 1.412 ± 0.046 | 0.9063 ± 0.03
30000 kPa, Falling or rolling sphere viscometry, w1 = 0.3005 | 2.161 ± 0.071 | 1.283 ± 0.042
30000 kPa, Falling or rolling sphere viscometry, w1 = 0.3995 | 3.253 ± 0.11 | 1.789 ± 0.059
40000 kPa, Falling or rolling sphere viscometry, w1 = 0.1005 | 0.957 ± 0.031 | 0.6532 ± 0.021
40000 kPa, Falling or rolling sphere viscometry, w1 = 0.202 | 1.423 ± 0.047 | 0.9178 ± 0.03
40000 kPa, Falling or rolling sphere viscometry, w1 = 0.3005 | 2.197 ± 0.072 | 1.305 ± 0.043
40000 kPa, Falling or rolling sphere viscometry, w1 = 0.3995 | 3.342 ± 0.11 | 1.835 ± 0.06
60000 kPa, Falling or rolling sphere viscometry, w1 = 0.1005 | 0.9672 ± 0.032 | 0.6631 ± 0.022
60000 kPa, Falling or rolling sphere viscometry, w1 = 0.202 | 1.45 ± 0.048 | 0.9397 ± 0.031
60000 kPa, Falling or rolling sphere viscometry, w1 = 0.3005 | 2.273 ± 0.075 | 1.353 ± 0.044
60000 kPa, Falling or rolling sphere viscometry, w1 = 0.3995 | 3.519 ± 0.12 | 1.927 ± 0.063
80000 kPa, Falling or rolling sphere viscometry, w1 = 0.1005 | 0.9775 ± 0.032 | 0.6729 ± 0.022
80000 kPa, Falling or rolling sphere viscometry, w1 = 0.202 | 1.479 ± 0.049 | 0.9613 ± 0.032
80000 kPa, Falling or rolling sphere viscometry, w1 = 0.3005 | 2.348 ± 0.077 | 1.396 ± 0.046
80000 kPa, Falling or rolling sphere viscometry, w1 = 0.3995 | 3.698 ± 0.12 | 2.019 ± 0.066
100000 kPa, Falling or rolling sphere viscometry, w1 = 0.1005 | 0.9881 ± 0.032 | 0.685 ± 0.023
100000 kPa, Falling or rolling sphere viscometry, w1 = 0.202 | 1.508 ± 0.049 | 0.9835 ± 0.032
100000 kPa, Falling or rolling sphere viscometry, w1 = 0.3005 | 2.424 ± 0.08 | 1.442 ± 0.047
100000 kPa, Falling or rolling sphere viscometry, w1 = 0.3995 | 3.881 ± 0.13 | 2.113 ± 0.069

mass density [kg/m3]
Conditions | w1 = 0.1005 | w1 = 0.202 | w1 = 0.3005 | w1 = 0.3995
313.15 K, 30000 kPa | 999.4 ± 0.7 | 994.8 ± 0.7 | 990.3 ± 0.7 | 984.4 ± 0.7
313.15 K, 40000 kPa | 1003.4 ± 0.7 | 998.6 ± 0.7 | 994 ± 0.7 | 988.2 ± 0.7
313.15 K, 50000 kPa | 1007 ± 0.7 | 1002.1 ± 0.7 | 997.5 ± 0.7 | 991.7 ± 0.7
313.15 K, 60000 kPa | 1010.8 ± 0.7 | 1005.6 ± 0.7 | 1001 ± 0.7 | 995.3 ± 0.7
313.15 K, 70000 kPa | 1014.5 ± 0.7 | 1009.1 ± 0.7 | 1004.4 ± 0.7 | 998.7 ± 0.7
313.15 K, 80000 kPa | 1018 ± 0.7 | 1012.5 ± 0.7 | 1007.6 ± 0.7 | 1002 ± 0.7
313.15 K, 90000 kPa | 1021.4 ± 0.7 | 1015.7 ± 0.7 | 1010.9 ± 0.7 | 1005.3 ± 0.7
313.15 K, 100000 kPa | 1024.9 ± 0.7 | 1019.1 ± 0.7 | 1014.1 ± 0.7 | 1008.5 ± 0.7
313.15 K, 110000 kPa | 1028.3 ± 0.7 | 1022.3 ± 0.7 | 1017.3 ± 0.7 | 1011.7 ± 0.7
313.15 K, 120000 kPa | 1031.6 ± 0.7 | 1025.6 ± 0.7 | 1020.4 ± 0.7 | 1014.7 ± 0.7
313.15 K, 130000 kPa | 1035 ± 0.7 | 1028.6 ± 0.7 | 1023.4 ± 0.7 | 1017.7 ± 0.7
313.15 K, 140000 kPa | 1038.2 ± 0.7 | 1031.7 ± 0.7 | 1026.4 ± 0.7 | 1020.7 ± 0.7
333.15 K, 100 kPa | 977.4 ± 0.7 | 971.5 ± 0.7 | 965.2 ± 0.7 | 957.4 ± 0.7
333.15 K, 500 kPa | 977.6 ± 0.7 | 971.8 ± 0.7 | 965.4 ± 0.7 | 957.6 ± 0.7
333.15 K, 1000 kPa | 977.8 ± 0.7 | 972 ± 0.7 | 965.6 ± 0.7 | 957.9 ± 0.7
333.15 K, 2000 kPa | 978.2 ± 0.7 | 972.4 ± 0.7 | 966.1 ± 0.7 | 958.3 ± 0.7
333.15 K, 5000 kPa | 979.5 ± 0.7 | 973.7 ± 0.7 | 967.3 ± 0.7 | 959.6 ± 0.7
333.15 K, 10000 kPa | 981.5 ± 0.7 | 975.7 ± 0.7 | 969.5 ± 0.7 | 961.8 ± 0.7
333.15 K, 15000 kPa | 983.6 ± 0.7 | 977.7 ± 0.7 | 971.5 ± 0.7 | 963.9 ± 0.7
333.15 K, 20000 kPa | 985.6 ± 0.7 | 979.7 ± 0.7 | 973.5 ± 0.7 | 966 ± 0.7
333.15 K, 30000 kPa | 989.7 ± 0.7 | 983.7 ± 0.7 | 977.5 ± 0.7 | 970.2 ± 0.7
333.15 K, 40000 kPa | 993.7 ± 0.7 | 987.7 ± 0.7 | 981.5 ± 0.7 | 974.2 ± 0.7
333.15 K, 50000 kPa | 997.3 ± 0.7 | 991.3 ± 0.7 | 985.2 ± 0.7 | 977.9 ± 0.7
333.15 K, 60000 kPa | 1001.1 ± 0.7 | 995 ± 0.7 | 988.9 ± 0.7 | 981.7 ± 0.7
333.15 K, 70000 kPa | 1004.9 ± 0.7 | 998.6 ± 0.7 | 992.5 ± 0.7 | 985.4 ± 0.7
333.15 K, 80000 kPa | 1008.4 ± 0.7 | 1002.1 ± 0.7 | 996 ± 0.7 | 988.9 ± 0.7
333.15 K, 90000 kPa | 1012 ± 0.7 | 1005.4 ± 0.7 | 999.2 ± 0.7 | 992.3 ± 0.7
333.15 K, 100000 kPa | 1015.4 ± 0.7 | 1008.9 ± 0.7 | 1002.7 ± 0.7 | 995.8 ± 0.7
333.15 K, 110000 kPa | 1018.9 ± 0.7 | 1012.2 ± 0.7 | 1006 ± 0.7 | 999 ± 0.7
333.15 K, 120000 kPa | 1022.3 ± 0.7 | 1015.5 ± 0.7 | 1009.3 ± 0.7 | 1002.4 ± 0.7
333.15 K, 130000 kPa | 1025.5 ± 0.7 | – | – | –
